The values below are quoted from earlier work in US20240180994A1 (priority 2021, published 2024).

Structures are written as SMILES.

The test system of data set [1] is TNF-α, IL-1β, MAPKs (p38). The settings on record: 100 mg/kg, spinal cord injury models.
In data set [2] the test system is HIV-luc/SARS pseudotyped virus. As to conditions: read-out: effective dose at 50% of inhibition (EC50%).
Data set [3] addresses SARS-CoV-2 membrane (M) protein (Severe acute respiratory syndrome coronavirus 2, UniProt P0DTC5). The settings on record: modeling studies.
For a further data set, the system named is TNF-α, IL-6 and IL-1β. The settings on record: daily oral 10-30 mg/kg for 4 weeks, aged rats.
The target of the next data set is cathepsin L (Homo sapiens, UniProt P07711).
The target in data set [4] is SARS-CoV-2 protease 3CL pro (Severe acute respiratory syndrome coronavirus 2, UniProt P0DTD1).
The subject of another data set is TNF-α. As to conditions: mouse, in vivo.

With `CC1=C(C=O)C(C)(C)CC=C1` [safranal], the “expression of inflammatory cytokines” value in data set [1] is “decreased the expression of the inflammatory cytokines TNF-α, IL-1β”.
Regarding `O=c1cc(-c2ccc(O)c(O)c2)oc2cc(O)cc(O)c12` [Luteolin], the EC50 is 9.02 µM in data set [2] and 10.6 µM with wild-type SARS-CoV (read-out: EC50% inhibition of cytopathic effect, wild-type SARS-CoV, MTT assay). For the same compound, the “EC50 values times less than cytotoxicity on the cells in vitro” value with wild-type SARS-CoV (relates to both EC50 values of luteolin) is reported as 15 times.
For `O=C(O)/C=C/c1ccc(O)c(O)c1` [caffeic acid], in data set [3], the “affinity with M protein” value is reported as “higher affinity with the M protein”.
Turning to `CC(/C=C/C=C(\C)C(=O)O[C@@H]1O[C@H](CO[C@@H]2O[C@H](CO)[C@@H](O)[C@H](O)[C@H]2O)[C@@H](O)[C@H](O)[C@H]1O)=C\C=C\C=C(C)\C=C\C=C(/C)C(=O)O[C@@H]1O[C@H](CO[C@@H]2O[C@H](CO)[C@@H](O)[C@H](O)[C@H]2O)[C@@H](O)[C@H](O)[C@H]1O` [crocin], the “pro-inflammatory cytokines in renal tissue and serum” value in the data set with TNF-α, IL-6 and IL-1β was “significantly reduced pro-inflammatory cytokines, TNF-α, IL-6 and IL-1β”.
In the case of `O=c1c(O)c(-c2ccc(O)c(O)c2)oc2cc(O)cc(O)c12` [Quercetin], the “cathepsin L inhibition” value at cathepsin L is listed as “inhibit cathepsin L”.
As to `O=c1c(O)c(-c2ccc(O)cc2)oc2cc(O)cc(O)c12` [Kaempferol], the IC50 in data set [4] is 116 µM.
Turning to `COc1cc(/C=C/C(=O)O)ccc1O` [ferulic acid], the “affinity with M protein” value in data set [3] is “higher affinity with the M protein”.
Consider `COc1ccc([C@@H]2CC(=O)c3c(O)cc(O[C@@H]4O[C@H](CO[C@@H]5O[C@@H](C)[C@H](O)[C@@H](O)[C@H]5O)[C@@H](O)[C@H](O)[C@H]4O)cc3O2)cc1O` [hesperidin], for which the “TNF-α in LPS-treated mice” value in the data set on TNF-α is listed as “decease TNF-α in mice treated with LPS”.
